Assay results: ChEMBL document CHEMBL1123912, “Analogues of the cytostatic and antimitogenic agents chlamydocin and HC-toxin: synthesis and biological activity of chloromethyl ketone and diazomethyl ketone functionalized cyclic tetrapeptides” (J Med Chem, 1987)
≈ marks a conversion by molar mass, not a printed value.

Species on record: Mus musculus
Assay: Compound was evaluated for the inhibition of Con A (concanavalin A) stimulated murine thymocyte mitogenesis.
Assay type: functional
Settings: not given

Row | Structure (SMILES) | IC50
1 | C[C@@H]1NC(=O)[C@H](C)NC(=O)[C@@H]2CCCN2C(=O)[C@H](CCCCCC(=O)CCl)NC1=O | 0.04 µg/mL (≈ 0.0903 µM)
2 | C[C@@H]1NC(=O)[C@H](C)NC(=O)[C@@H]2CCCN2C(=O)[C@H](CCCCCC(=O)C=[N+]=[N-])NC1=O | > 2 µg/mL
3 | C[C@@H]1NC(=O)[C@H](Cc2ccccc2)NC(=O)[C@@H]2CCCN2C(=O)[C@H](CCCCCC(=O)CCl)NC1=O | 0.1 µg/mL (≈ 0.193 µM)
4 | CC1(C)NC(=O)[C@H](CCCCCC(=O)CCl)NC(=O)[C@H]2CCCN2C(=O)[C@H](Cc2ccccc2)NC1=O | 0.01 µg/mL (≈ 0.0188 µM)
5 | CC1(C)NC(=O)[C@H](CCCCCC(=O)[C@H]2CO2)NC(=O)[C@H]2CCCN2C(=O)[C@H](Cc2ccccc2)NC1=O [CHLAMYDOCIN] | 0.003 µg/mL (≈ 0.0057 µM)

Test system: P815
Assay: Compound was evaluated for the inhibition of cell growth in mouse P-815 mastocytoma cells.
Assay type: functional
Settings: read-out: ED50 (the source's name)

Row | Structure (SMILES) | EC50
6 | CC1(C)NC(=O)[C@H](CCCCCC(=O)[C@H]2CO2)NC(=O)[C@H]2CCCN2C(=O)[C@H](Cc2ccccc2)NC1=O [CHLAMYDOCIN] | 0.00036 µg/mL (≈ 0.000684 µM)
